Test results published in PMC11506018, “Targeting PARP-1 and DNA Damage Response Defects in Colorectal Cancer Chemotherapy with Established and Novel PARP Inhibitors” (Cancers, 2024).
Where two headings read alike, the source gives them in different places.

What was measured:
[1] = test system: human colonic epithelial cells (HCEC); experiment: cell viability, resazurin reduction assay, HCEC; conditions: 72 h; for cell viability, monotreatment: nonmalignant HCEC, up to 50 µM; for IC50: read-out: IC50-values HCEC
Description: (§1) To assess the cytotoxicity of newly developed PARP inhibitors, cells were cultivated in translucent 96-well plates overnight and treated with PARP inhibitors or cytostatic drugs for 72 h. For the assessment of synergistic activity, cells were pretreated with the inhibitors for 2 h, before the inhibitor or cytostatic drug was added. Cell viability was assessed by the resazurin reduction assay (RRA) as described previously [41], and fluorescence was measured using a Spark® Multi-well reader (Tecan, Crailsheim, Germany). IC50 values were calculated using GraphPad Prism 9.0 software (GraphPad Software Inc., Boston, MA, USA). To this end, concentrations were transformed into the log scale, plotted against the cell viability and the curve was fitted by nonlinear regression with variable slope, providing the IC50 values.

DLD-1 WT cells = experiment: cell viability, resazurin reduction assay, DLD-1 WT; conditions: for cell viability, monotreatment: DLD-1 WT; for IC50: read-out: IC50-values DLD-1 WT
Description: (§2) To assess the cytotoxicity of newly developed PARP inhibitors, cells were cultivated in translucent 96-well plates overnight and treated with PARP inhibitors or cytostatic drugs for 72 h. […] Cell viability was assessed by the resazurin reduction assay (RRA) as described previously [41], and fluorescence was measured using a Spark® Multi-well reader (Tecan, Crailsheim, Germany). IC50 values were calculated using GraphPad Prism 9.0 software (GraphPad Software Inc., Boston, MA, USA). To this end, concentrations were transformed into the log scale, plotted against the cell viability and the curve was fitted by nonlinear regression with variable slope, providing the IC50 values.

Caco-2 cells = experiment: cell viability, resazurin reduction assay, Caco-2; conditions: for cell viability, monotreatment: up to 50 µM; for cytotoxicity of IT in combination with PARPi: not statistically significant; for IC50: read-out: IC50-values Caco-2
Description: as §1

P-glycoprotein = test system: P-glycoprotein; design: method as in PMID 24700236; conditions: efflux transporter; cited from earlier work
DLD-1 ATRs/s cells = experiment: cell viability, resazurin reduction assay, DLD-1 ATRs/s; conditions: for cell viability, monotreatment: DLD-1 ATRs/s; for IC50: read-out: IC50-values DLD-1 ATRs/s
Description: as §2

PARP-1 [2] = molecular target: T1, PARP-1 (Homo sapiens, UniProt P09874); experiment: chemiluminescence-based PARP-1 assay kit (recombinant enzyme); conditions: for IC50: IC50 PARP-1 screening assay kit
T1 sequence (P09874 whole entry): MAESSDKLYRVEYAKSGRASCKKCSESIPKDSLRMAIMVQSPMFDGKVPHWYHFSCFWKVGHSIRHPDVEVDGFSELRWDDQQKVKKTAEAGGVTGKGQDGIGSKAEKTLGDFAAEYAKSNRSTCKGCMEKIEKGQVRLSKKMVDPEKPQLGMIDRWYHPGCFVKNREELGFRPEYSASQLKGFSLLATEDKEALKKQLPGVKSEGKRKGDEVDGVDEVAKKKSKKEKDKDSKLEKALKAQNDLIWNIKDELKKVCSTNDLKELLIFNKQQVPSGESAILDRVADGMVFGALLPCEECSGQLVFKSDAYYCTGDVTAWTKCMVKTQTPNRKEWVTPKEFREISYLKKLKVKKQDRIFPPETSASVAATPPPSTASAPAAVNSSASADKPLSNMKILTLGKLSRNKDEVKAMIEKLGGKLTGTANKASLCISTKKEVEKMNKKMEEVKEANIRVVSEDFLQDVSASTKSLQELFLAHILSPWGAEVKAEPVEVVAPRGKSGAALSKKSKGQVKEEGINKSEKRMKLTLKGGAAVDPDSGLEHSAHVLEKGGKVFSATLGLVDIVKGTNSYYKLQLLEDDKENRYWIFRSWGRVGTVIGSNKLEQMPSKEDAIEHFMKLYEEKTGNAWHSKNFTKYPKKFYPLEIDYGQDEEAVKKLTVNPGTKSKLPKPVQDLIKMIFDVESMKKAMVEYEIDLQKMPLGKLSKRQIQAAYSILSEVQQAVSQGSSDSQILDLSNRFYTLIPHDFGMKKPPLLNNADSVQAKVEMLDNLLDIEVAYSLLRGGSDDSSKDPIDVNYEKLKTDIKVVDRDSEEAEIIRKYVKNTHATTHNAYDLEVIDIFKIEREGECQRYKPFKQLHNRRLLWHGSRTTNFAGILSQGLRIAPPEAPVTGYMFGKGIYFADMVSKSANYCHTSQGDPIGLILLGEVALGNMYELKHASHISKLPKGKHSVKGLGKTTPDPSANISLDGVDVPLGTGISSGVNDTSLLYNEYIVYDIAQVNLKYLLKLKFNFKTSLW
Description: Twelve compounds were screened regarding their ability to inhibit PARP-1 enzyme activity in vitro. Therefore, we utilized a chemiluminescence-based PARP-1 assay kit (BPS Bioscience, San Diego, CA, USA) and performed two independent experiments according to the manufacturer’s instructions. Briefly, non-transparent 96-well plates were coated with histones overnight. […] After adding activated DNA and biotinylated NAD^+, the ADP-ribosylation reaction was initiated by the addition of PARP-1 enzyme and incubated at RT for 1 h. Quantification of biotinylated PAR was conducted by using Streptavidin–HRP and subsequent ECL-based detection of chemiluminescence, applying a Spark® multiplate reader (Tecan, Crailsheim, Germany).

HCT116 PARP-1+/+ cells = experiment: cell viability, resazurin reduction assay, HCT116 PARP-1+/+; conditions: for IC50: read-out: IC50-values HCT116 PARP1+/+
Description: as §1

HCT116 PARP-1−/− cells = experiment: cell viability, resazurin reduction assay, HCT116 PARP-1-/-; conditions: for IC50: read-out: IC50-values HCT116 PARP1−/−
Description: as §1

HCT116 BRCA2−/− cells = experiment: cell viability, resazurin reduction assay, HCT116 BRCA2-/-; conditions: for IC50: read-out: IC50-values HCT116 BRCA2−/−
Description: as §1

[3] = test system: H2O2-induced PAR formation (PARP-1 activity) in HCT116 cells; experiment: PAR immunofluorescence: H2O2-induced PAR formation in HCT116 cells; format: cell-based, human; conditions: for IC50: Homo sapiens, HCT-116, 2 h pretreatment, 1 mM H2O2 5 min
Description: Cells lines were re-authenticated by p53, PARP-1, ATR, and BRCA2 immunoblotting, by their characteristic differential response to genotoxic agents and their typical cell morphology. HCT116, HCT116 BRCA2^−/−, DLD-1 ATR^+/+ and DLD-1 ATR^s/s cells were maintained in DMEM, whereas HCT116 PARP-1^+/+ and HCT116 PARP-1^−/− cells were maintained in RPMI1640 containing 10% FCS and 1% penicillin/streptomycin in a humidified atmosphere at 37 °C and 5% CO2. Caco-2 cells were cultured in MEM with 10% FCS, 1% penicillin/streptomycin, and nonessential amino acids. […] The media and supplements were obtained from PAN-Biotech (Aidenbach, Germany) and Thermo Fisher Scientific (Darmstadt, Germany). Cell culture was frequently tested for contamination with mycoplasma by PCR using the Venor® GeM Classic kit (Minerva Biolabs, Berlin, Germany) and immunofluorescence microscopy with nuclear staining. […] Cells were exposed for 1 h for the quantification of PARP-1 trapping or 2 h for assessing the inhibitory potential by confocal fluorescence microscopy. […] If the PARPi treatment was conducted in combination with cytostatic drugs for 24 h (γH2AX Western blot analysis) or 72 h (cytotoxicity testing), the PARPi was added 2 h prior.
The activity of potential PARP inhibitors was tested in a cell model using immunofluorescence-based detection of PAR essentially as reported previously. HCT116 cells were seeded in Ibidi 12-well chamber slides and cultivated until they reached 70% confluence. Induction of PARylation was achieved by adding 1 mM H2O2 in PBS/1 mM MgCl2 for 5 min at 37 °C. Cells were washed with PBS/1 mM MgCl2 and fixed by adding 4% PFA at RT. After 20 min, cells were washed with PBS/100 mM glycine for 1 min and permeabilized with PBS/0.3% Triton X-100 for 3 min. Blocking of the cells was conducted by adding PBS/0.05% Tween containing 5% powdered milk for 1 h at RT. […] Cells were washed and an Alexa488-coupled secondary antibody was added for 1 h at RT. The slides were mounted with VectaShield containing DAPI and analyzed by confocal microscopy using a Zeiss Axio Observer 7 microscope (Oberkochen, Germany) equipped with a 63× oil objective (Plan-Apochromat 63×/1.40 DIC M27) and a LSM900 confocal laser scanner (Zeiss, Oberkochen, Germany). Images were analyzed using Zeiss Zen software version 3.4 and ImageJ v1.53t (NIH, Bethesda, MD, USA). Briefly, nuclei were identified based on the DAPI signal and marked as regions of interest (ROI). Subsequently, the mean PAR signal in the identified ROI was quantified in each image and exported for further analysis. For the individual experiments, the mean PAR intensity was averaged for each treatment group and the control was set to 100%. Only images with a minimum of 4 cells were included in the analysis and at least 5 images were assessed per treatment group. The experiments were conducted in at least 3 biological replicates. To derive IC50 concentrations, relative PAR levels of the experiments were transferred to GraphPad Prism 9.0 Software (GraphPad Software Inc., Boston, MA, USA) for a nonlinear regression analysis applying a three-parameter model.

PARP-1 [4] = molecular target: T1, PARP-1; experiment: chromatin retention assay (PARP-1 trapping) in Caco-2 cells; conditions: Caco-2, MMS 1 mM 1 h with inhibitor
Description: (§3) Quantification of chromatin-trapped PARP-1 was performed as described elsewhere [42]. Briefly, HCT116 cells were harvested, and pellets were lysed in buffer containing 150 mM KCl, 2.5 mM MgCl2, 50 mM HEPES pH 7.8, 5 mM EDTA pH 8, 3 mM dithiothreitol (DTT), 10% glycerol, 0.5% Triton X-100, and freshly added protease inhibitor cocktail (Roche) for 15 min on ice. The chromatin-bound protein fraction was isolated by centrifugation at 4 °C for 15 min and 16.000× g. After transferring the soluble fraction, the chromatin-containing pellet was washed twice in lysis buffer and sonicated for 3 min. […] The proteins of interest were detected using a c300 chemiluminescence imager (Azure Biosystems, Dublin, CA, USA). […] The signal intensity (e.g., PARP-1 or γH2AX) of each lane was quantified and subsequently normalized to the respective loading control as indicated in the figure legends, which was analyzed in each experiment. […]

[5] = test system: γH2AX formation in HCT116 BRCA2−/− cells; experiment: γH2AX Western blot in HCT116 BRCA2-/- cells; conditions: PARPi 50 µM, IT 0.25 µM 24 h
Description: as §3

[6] = test system: γH2AX formation in HCT116 WT cells; experiment: γH2AX Western blot in HCT116 WT cells
Description: Quantification of chromatin-trapped PARP-1 was performed as described elsewhere [42]. Briefly, HCT116 cells were harvested, and pellets were lysed in buffer containing 150 mM KCl, 2.5 mM MgCl2, 50 mM HEPES pH 7.8, 5 mM EDTA pH 8, 3 mM dithiothreitol (DTT), 10% glycerol, 0.5% Triton X-100, and freshly added protease inhibitor cocktail (Roche) for 15 min on ice. The chromatin-bound protein fraction was isolated by centrifugation at 4 °C for 15 min and 16.000× g. After transferring the soluble fraction, the chromatin-containing pellet was washed twice in lysis buffer and sonicated for 3 min. The soluble and chromatin fractions were mixed with self-made 5× Laemmli buffer (200 mM TRIS pH 6.8, 40% glycerol, 8% SDS, 4 % ß-mercaptoethanol, 0.08% Bromphenol Blue) and incubated at 95 °C for 10 min. Samples were then separated by SDS-PAGE followed by Western blot analysis essentially as described previously [43]. For the analysis of γH2AX, cells were directly harvested in 1× Laemmli buffer, incubated at 95 °C for 5 min, and subjected to SDS-PAGE and subsequent Western blot analysis [44]. […] The proteins of interest were detected using a c300 chemiluminescence imager (Azure Biosystems, Dublin, CA, USA). Densitometric image analysis was conducted by applying the software AzureSpot version 2.0.062 (Azure Biosystems, USA). The signal intensity (e.g., PARP-1 or γH2AX) of each lane was quantified and subsequently normalized to the respective loading control as indicated in the figure legends, which was analyzed in each experiment. […]

HCT116 WT cells = experiment: cell viability, resazurin reduction assay, HCT116 WT; conditions: for IC50: Homo sapiens, HCT-116, 72 h, read-out: IC50-values HCT116 WT
Description: as §2

PARP-1 [7] = molecular target: T1, PARP-1; experiment: chromatin retention assay (PARP-1 trapping) in HCT116 cells; conditions: HCT116, MMS 1 mM 1 h with inhibitor
Description: as §3

PARP-2 = test system: PARP-2; design: method as in PMID 34327724; conditions: cited from earlier work

C[C@]1(c2nc3c(C(N)=O)cccc3[nH]2)CCCN1 [Veliparib, veliparib]
cell viability, monotreatment [1]: no effect on HCEC | IC50 ([1]; RRA): > 50 µM | cell viability, monotreatment (DLD-1 WT cells; 72 h): concentration-dependent decrease in viability in both cell models | IC50 (DLD-1 WT cells; 72 h, RRA): > 50 µM | cell viability, monotreatment (Caco-2 cells; Caco-2, 72 h): little cytotoxicity at the highest test concentration | cytotoxicity of IT in combination with PARPi (Caco-2 cells; Caco-2, IT 10 µM): moderately increased the cytotoxicity of IT | IC50 (Caco-2 cells; 72 h, RRA): > 50 µM | P-glycoprotein substrate (P-glycoprotein): are not excreted | cell viability, monotreatment (DLD-1 ATRs/s cells; 72 h): concentration-dependent decrease in viability in both cell models | IC50 (DLD-1 ATRs/s cells; 72 h, RRA): > 50 µM | PARP-1 activity, % of the negative control (PARP-1 [2]; concentration of 5 nM): ~50% | cell viability in combination with cytostatics (HCT116 PARP-1+/+ cells): significant decrease in cell viability compared to mono-treatment with cytostatics | cell viability, monotreatment (HCT116 PARP-1+/+ cells): only mild cytotoxicity at the highest test concentration | IC50 (HCT116 PARP-1+/+ cells): > 50 µM | cell viability in combination with cytostatics (HCT116 PARP-1−/− cells): did not sensitize to the anticancer drugs | cell viability, monotreatment (HCT116 PARP-1−/− cells): only mild cytotoxicity at the highest test concentration | IC50 (HCT116 PARP-1−/− cells): > 50 µM | cytotoxicity, monotreatment (HCT116 BRCA2−/− cells; HCT116 BRCA2−/−, 72 h): High cytotoxicity in the low micromolar concentration range | IC50 (HCT116 BRCA2−/− cells): 7.45 µM

O=C(O)C1=NNC(=O)c2cccc3[nH]cc1c23 [X17613, 1-oxo-2,6-dihydro-1H-[1,2]diazepino [4,5,6-cd]indole-4-carboxylic acid]
IC50 ([1]; Homo sapiens, HCEC): > 50 µM | cell viability, monotreatment [1]: no effect on HCEC | cell viability, monotreatment (DLD-1 WT cells; 72 h): no effects | IC50 (DLD-1 WT cells; Homo sapiens, DLD-1, 72 h): > 50 µM | IC50 ([3]; range over the three compounds, read-out: IC50 cellular PARP inhibition): 0.005 to 0.035 µM | IC50 ([3]; unit inferred, read-out: IC50 PAR formation in HCT116 cells (Figure A3A)): 0.036 µM | PAR signal ([3]; concentration of 100 nM, H2O2-induced): significant decrease in the PAR signal | cell viability, monotreatment (Caco-2 cells; Caco-2, 72 h): little cytotoxicity at the highest test concentration | sensitization towards the anticancer drugs (Caco-2 cells; Caco-2, IT 10 µM, 5-FU 5 µM, OXA 1 µM): no sensitization towards the anticancer drugs | IC50 (Caco-2 cells; Homo sapiens, Caco-2, 72 h): > 50 µM | cell viability, monotreatment (DLD-1 ATRs/s cells; 72 h): no effects | IC50 (DLD-1 ATRs/s cells; Homo sapiens, DLD-1, 72 h): > 50 µM | IC50 (PARP-1 [2]): 0.041 µM | IC50 (PARP-1 [2]; recombinant PARP-1, 1 h RT, n = 2): 0.0413 µM | PARP-1 trapping (PARP-1 [4]): no effects were detected | cell viability, monotreatment (HCT116 PARP-1+/+ cells; HCT116 PARP-1+/+, 72 h, up to 50 µM): Neither X17613 nor X17618 decreased cell viability | cell viability in combination with cytostatics (HCT116 PARP-1+/+ cells; HCT116 PARP-1+/+, IT 0.5 µM, 5-FU 0.25 µM, OXA 0.5 µM, 72 h, PARPi added 2 h prior): did not affect the cytotoxicity of the anticancer drugs | IC50 (HCT116 PARP-1+/+ cells; Homo sapiens, HCT-116, 72 h): > 50 µM | γH2AX, co-treatment with IT [5]: further augmented in the presence of X17613 | cell viability, monotreatment (HCT116 PARP-1−/− cells; HCT116 PARP-1−/−, 72 h, up to 50 µM): Neither X17613 nor X17618 decreased cell viability | cell viability in combination with cytostatics (HCT116 PARP-1−/− cells; HCT116 PARP-1−/−, IT 0.5 µM, 5-FU 0.25 µM, OXA 0.5 µM, 72 h, PARPi added 2 h prior): did not affect the cytotoxicity of the anticancer drugs | IC50 (HCT116 PARP-1−/− cells; Homo sapiens, HCT-116, 72 h): > 50 µM | decrease of viability (HCT116 BRCA2−/− cells; HCT116 BRCA2−/−, highest test concentration of 50 µM, 72 h): about 25% | cell viability in combination with chemotherapeutics (HCT116 BRCA2−/− cells; HCT116 BRCA2−/−, IT 0.25 µM, 5-FU 0.1 µM, OXA 0.25 µM, 72 h): significant reduction in viability in HCT116 BRCA2^−/− cells in combination with the established cytostatic drug IT | IC50 (HCT116 BRCA2−/− cells; Homo sapiens, HCT-116, 72 h): > 50 µM | γH2AX, co-treatment with IT compared to IT mono-treatment ([6]; PARPi 50 µM 2 h prior, IT 0.25 µM 24 h): no significant further increase | γH2AX, mono-treatment ([6]; X17613 50 µM or IT 0.25 µM, 24 h): No significant increase in γH2AX | cell viability, monotreatment (HCT116 WT cells; HCT116 WT, 72 h, up to 50 µM): no impact | IC50 (HCT116 WT cells): > 50 µM | chromatin-bound PARP-1 (PARP-1 trapping) (PARP-1 [7]): No enrichment of PARP-1 in the chromatin fraction

O=C(c1cc(Cc2n[nH]c(=O)c3ccccc23)ccc1F)N1CCN(C(=O)C2CC2)CC1 [Olaparib, olaparib]
IC50 ([1]; Homo sapiens, HCEC): > 50 µM | cell viability, monotreatment [1]: moderate decline in viability at the highest concentration | IC50 (DLD-1 WT cells; Homo sapiens, DLD-1, 72 h): 5.88 µM | PAR formation ([3]; 10 nM, positive control): completely blocked PAR formation | cell viability, monotreatment (Caco-2 cells; Caco-2, 72 h): concentration-dependent reduction in Caco-2 viability | cytotoxicity of IT in combination with PARPi (Caco-2 cells; Caco-2, IT 10 µM): moderately increased the cytotoxicity of IT | IC50 (Caco-2 cells; Homo sapiens, Caco-2, 72 h): > 50 µM | P-glycoprotein substrate (P-glycoprotein): known substrates for P-glycoprotein | IC50 (DLD-1 ATRs/s cells; Homo sapiens, DLD-1, 72 h): 1.99 µM | IC50 (PARP-2): […] | cytotoxicity, monotreatment (HCT116 BRCA2−/− cells; HCT116 BRCA2−/−, 72 h): High cytotoxicity in the low micromolar concentration range | IC50 (HCT116 BRCA2−/− cells; Homo sapiens, HCT-116, 72 h): 0.46 µM | IC50 (HCT116 WT cells): 8.4 µM
